Laboratory results reported in patent publication US8846947B2, “Benzimidazoles and related analogs as sirtuin modulators” (GlaxoSmithKline LLC, priority 2008, dated 2014).
Where two headings read alike, the source gives them in different places.

Molecular target: T1, SIRT1 (Homo sapiens, UniProt Q96EB6)
T1 sequence (Q96EB6 1-747): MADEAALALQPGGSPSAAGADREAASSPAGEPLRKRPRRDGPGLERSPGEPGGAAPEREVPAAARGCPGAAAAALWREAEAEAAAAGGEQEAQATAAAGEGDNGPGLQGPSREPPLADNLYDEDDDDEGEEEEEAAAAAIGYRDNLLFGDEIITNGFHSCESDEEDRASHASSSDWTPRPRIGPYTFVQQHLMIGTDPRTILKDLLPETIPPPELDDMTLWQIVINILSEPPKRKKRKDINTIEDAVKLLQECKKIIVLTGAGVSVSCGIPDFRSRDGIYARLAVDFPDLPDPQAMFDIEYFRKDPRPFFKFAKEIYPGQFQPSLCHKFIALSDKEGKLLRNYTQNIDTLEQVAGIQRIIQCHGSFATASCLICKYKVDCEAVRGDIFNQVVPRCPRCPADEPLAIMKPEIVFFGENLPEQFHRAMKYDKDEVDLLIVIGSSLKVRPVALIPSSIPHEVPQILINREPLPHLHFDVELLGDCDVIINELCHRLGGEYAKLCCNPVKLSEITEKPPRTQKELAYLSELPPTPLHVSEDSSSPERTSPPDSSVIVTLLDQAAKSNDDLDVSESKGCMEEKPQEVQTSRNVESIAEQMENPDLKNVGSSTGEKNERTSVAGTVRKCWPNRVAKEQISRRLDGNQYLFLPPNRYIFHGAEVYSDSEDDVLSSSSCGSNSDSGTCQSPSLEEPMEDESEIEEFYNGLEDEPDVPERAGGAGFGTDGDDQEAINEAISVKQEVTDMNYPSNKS
Experiment: Mass spectrometry based SIRT1 deacetylase activation assay (acetylated p53-derived peptide substrate)
Type: biochemical
Details: 0.5 μM peptide substrate, 120 μM βNAD+

[1] = 10 nM SIRT1, 25 min at 25° C., read-out: EC1.5
[2] = 10 nM SIRT1, 25 minutes at 25° C.

| SMILES | Fold Act. (percent maximum fold activation) (10 nM SIRT1, 25 min at 25° C.) | EC1.5 [1] [nM] | EC1.5 [2] | Fold Act. (percent maximum fold activation) [2] |
| --- | --- | --- | --- | --- |
| O=C(Nc1cccnc1)c1cccc2[nH]c(-c3ccnc(N4CCCC4)c3)nc12 [Compound 568] | B (Fold Activation <200%) | > 25000 |  |  |
| CCCN1CCc2cc(-c3nc4c(C(=O)Nc5cccnc5)cccc4[nH]3)ccc21 [Compound 569] | A (Fold activation >200%) | 1000 to 25000 |  |  |
| CCCN1CCc2cc(-c3nc4c(C(=O)Nc5ncc(C)s5)cccc4[nH]3)ccc21 [Compound 570] | B (Fold Activation <200%) | 1000 to 25000 |  |  |
| C[C@@H]1CN(c2ccc(-c3nc4c(C(=O)Nc5ccccn5)cccc4[nH]3)c(C(F)(F)F)c2)C[C@H](C)O1 [Compound 571] | A (Fold activation >200%) | < 1000 |  |  |
| O=C(Nc1nccs1)c1cccc2[nH]c(-c3ccc(N4CCCC4)cc3C(F)(F)F)nc12 [Compound 572] | A (Fold activation >200%) | 1000 to 25000 |  |  |
| O=C(Nc1cccnc1)c1cccc2[nH]c(-c3ccc(N4CCCC4)cc3C(F)(F)F)nc12 [Compound 573] | A (Fold activation >200%) | < 1000 |  |  |
| O=C(Nc1cccnc1)c1cccc2[nH]c(-c3ccc(N4CC[C@H](F)C4)cc3C(F)(F)F)nc12 [Compound 574] | A (Fold activation >200%) | < 1000 |  |  |
| O=C(Nc1cccnc1)c1cccc2[nH]c(-c3ccc(N4CC[C@@H](F)C4)cc3C(F)(F)F)nc12 [Compound 575] | A (Fold activation >200%) | < 1000 |  |  |
| C[C@@H]1CN(c2cccc(-c3nc4c(C(=O)Nc5nccs5)cccc4[nH]3)c2)C[C@H](C)O1 [Compound 576, 2-(3-(2,6-dimethylmorpholino)phenyl)-N-(thiazol-2-yl)-1H-benzo[d]imidazole-4-carboxamide] | A (Fold activation >200%) | < 1000 |  |  |
| C[C@@H]1CN(c2cccc(-c3nc4c(C(=O)Nc5ccccn5)cccc4[nH]3)c2)C[C@H](C)O1 [Compound 577] | A (Fold activation >200%) | < 1000 |  |  |
| C[C@@H]1CN(CCOc2ccccc2-c2nc3c(C(=O)Nc4nccs4)cccc3[nH]2)C[C@H](C)O1 [Compound 578] | B (Fold Activation <200%) | 1000 to 25000 |  |  |
| O=C(Nc1nccs1)c1cccc2[nH]c(-c3ccccc3OCCN3CCC(F)(F)CC3)nc12 [Compound 579] | B (Fold Activation <200%) | > 25000 |  |  |
| CC(C)(C)NCCOc1ccccc1-c1nc2c(C(=O)Nc3nccs3)cccc2[nH]1 [Compound 580] | A (Fold activation >200%) | 1000 to 25000 |  |  |
| FC(F)(F)c1cccc(-c2nc3c(Nc4ccccn4)cccc3[nH]2)c1 [Compound 581, N-(pyridin-2-yl)-2-(3-(trifluoromethyl)phenyl)-1H-benzo[d]imidazol-4-amine] | B (Fold Activation <200%) | > 25000 |  |  |
| FC(F)(F)c1ccccc1-c1nc2c(Nc3ccccn3)cccc2[nH]1 [Compound 582] | B (Fold Activation <200%) | > 25000 |  |  |
| O=C(Nc1nccs1)c1cccc2[nH]c(-c3cc(F)ccc3OCCN3CCOCC3)nc12 [Compound 583] | A (Fold activation >200%) | 1000 to 25000 |  |  |
| O=C(Nc1ccccn1)c1cccc2[nH]c(-c3cc(F)ccc3OCCN3CCOCC3)nc12 [Compound 584] | A (Fold activation >200%) | 1000 to 25000 |  |  |
| O=C(Nc1nccs1)c1cccc2[nH]c(-c3cc(F)cc(F)c3OCCN3CCOCC3)nc12 [Compound 585] | B (Fold Activation <200%) | 1000 to 25000 |  |  |
| O=C(Nc1ccccn1)c1cccc2[nH]c(-c3cc(F)cc(F)c3OCCN3CCOCC3)nc12 [Compound 586] | B (Fold Activation <200%) | 1000 to 25000 |  |  |
| CC(C)(C)c1cccc(-c2nc3c(C(=O)Nc4nccs4)cccc3[nH]2)c1OCCN1CCOCC1 [Compound 587] | B (Fold Activation <200%) | 1000 to 25000 |  |  |
| CC(C)(C)c1cccc(-c2nc3c(C(=O)Nc4ccccn4)cccc3[nH]2)c1OCCN1CCOCC1 [Compound 588] | B (Fold Activation <200%) | 1000 to 25000 |  |  |

| SMILES | Fold Act. (percent maximum fold activation) (10 nM SIRT1, 25 min at 25° C.) | EC1.5 [1] [nM] | EC1.5 [2] | Fold Act. (percent maximum fold activation) [2] |
| --- | --- | --- | --- | --- |
| Cc1nc(NC(=O)c2cccc3[nH]c(-c4ccc(N5CCOCC5)cc4C(F)(F)F)nc23)sc1C [Compound 589] | A (Fold activation >200%) | < 1000 |  |  |
| Cc1cc(C)nc(NC(=O)c2cccc3[nH]c(-c4ccc(N5CCOCC5)cc4C(F)(F)F)nc23)c1 [Compound 590] | A (Fold activation >200%) | < 1000 |  |  |
| O=C(Nc1ccncn1)c1cccc2[nH]c(-c3ccc(N4CCOCC4)cc3C(F)(F)F)nc12 [Compound 591] | A (Fold activation >200%) | < 1000 |  |  |
| Cc1cc(NC(=O)c2cccc3[nH]c(-c4ccc(N5CCOCC5)cc4C(F)(F)F)nc23)n(C)n1 [Compound 592] | A (Fold activation >200%) | < 1000 |  |  |
| O=C(Nc1ccncn1)c1cccc2[nH]c(-c3ccc(N4CCOCC4)cc3C(F)F)nc12 [Compound 593] | A (Fold activation >200%) | < 1000 |  |  |
| O=C(Nc1nccs1)c1cccc2[nH]c(-c3ccc(OC[C@@H](O)CO)cc3C(F)F)nc12 [Compound 594] | A (Fold activation >200%) | < 1000 |  |  |
| Cc1cnc(NC(=O)c2cccc3[nH]c(-c4ccc(OC[C@@H](O)CO)cc4C(F)F)nc23)s1 [Compound 595] | A (Fold activation >200%) | < 1000 |  |  |
| O=C(Nc1ccccn1)c1cccc2[nH]c(-c3ccc(OC[C@@H](O)CO)cc3C(F)F)nc12 [Compound 596] | A (Fold activation >200%) | < 1000 |  |  |
| O=C(Nc1cccc(OC2CCNCC2)c1)c1cccc2[nH]c(-c3ccccc3C(F)(F)F)nc12 [Compound 597] | A (Fold activation >200%) | < 1000 |  |  |
| O=C(Nc1cccc(OC2CCNCC2)c1)c1cccc2[nH]c(-c3ccc(Cl)cc3C(F)(F)F)nc12 [Compound 598] |  |  | A (EC1.5<1.0 uM) | A (Fold activation >200%) |
| O=C(Nc1cccc(OC2CCNC2)c1)c1cccc2[nH]c(-c3ccc(Cl)cc3C(F)(F)F)nc12 (stereo not drawn) [Compound 599] |  |  | A (EC1.5<1.0 uM) | A (Fold activation >200%) |
| CS(=O)(=O)c1ccc(F)cc1-c1nc2c(C(=O)Nc3nccs3)cccc2[nH]1 [Compound 600] |  |  | B (EC1.5 1-25 uM) | A (Fold activation >200%) |
| Cc1cnc(NC(=O)c2cccc3[nH]c(-c4sc(N5CCOCC5)nc4C)nc23)s1 [Compound 601] |  |  | A (EC1.5<1.0 uM) | A (Fold activation >200%) |
| CCCN1CCCc2ccc(-c3nc4c(C(=O)Nc5ncc(C)s5)cccc4[nH]3)cc21 [Compound 602] |  |  | B (EC1.5 1-25 uM) | A (Fold activation >200%) |
| C[C@@H]1CN(c2ccc(-c3nc4c(C(=O)Nc5nccs5)cccc4[nH]3)c(C(F)(F)F)c2)C[C@H](C)O1 [Compound 603] |  |  | A (EC1.5<1.0 uM) | A (Fold activation >200%) |
| C[C@@H]1CN(c2ccc(-c3nc4c(C(=O)Nc5cccnc5)cccc4[nH]3)c(C(F)(F)F)c2)C[C@H](C)O1 [Compound 604] |  |  | A (EC1.5<1.0 uM) | A (Fold activation >200%) |
| O=C(Nc1ccccn1)c1cccc2[nH]c(-c3ccc(N4CCCC4)cc3C(F)(F)F)nc12 [Compound 605] |  |  | B (EC1.5 1-25 uM) | A (Fold activation >200%) |
| O=C(Nc1nccs1)c1cccc2[nH]c(-c3ccc(N4CC[C@H](F)C4)cc3C(F)(F)F)nc12 [Compound 606] |  |  | A (EC1.5<1.0 uM) | A (Fold activation >200%) |
| O=C(Nc1ccccn1)c1cccc2[nH]c(-c3ccc(N4CC[C@H](F)C4)cc3C(F)(F)F)nc12 [Compound 607] |  |  | A (EC1.5<1.0 uM) | A (Fold activation >200%) |
| O=C(Nc1nccs1)c1cccc2[nH]c(-c3ccc(N4CC[C@@H](F)C4)cc3C(F)(F)F)nc12 [Compound 608] |  |  | A (EC1.5<1.0 uM) | A (Fold activation >200%) |
| O=C(Nc1ccccn1)c1cccc2[nH]c(-c3ccc(N4CC[C@@H](F)C4)cc3C(F)(F)F)nc12 [Compound 609] |  |  | B (EC1.5 1-25 uM) | A (Fold activation >200%) |
